Publication PMC7377239, “Cardiovascular Effects of Polychlorinated Biphenyls and Their Major Metabolites” (Environmental Health Perspectives, 2020)
Structures can show the parent of a compound that is named as a salt. Where two headings read alike, the source gives them in different places.

Assays:
[1] = tested on: iCell cardiomyocytes (human iPSC-derived cardiomyocytes); experiment: High-content imaging of cytotoxicity and mitochondrial integrity in iPSC-CMs; type: cell-based; settings: Homo sapiens, Cardiomyocyte, cardiomyocytes (cm)
Outline: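 Readouts from high-content images were normalized to vehicle controls containing 0.5% vol/vol DMSO. They were fit to a four-parameter logistic model in R. Points of departure were set using a cutoff of one standard deviation across vehicle control means. Where no concentration–response was seen, the top tested concentration of 100μM was assigned as the no observable adverse effect level.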

HUVECs = experiment: High-content imaging cytotoxicity in HUVECs, 24 h; type: cell-based, human; settings: Homo sapiens, HUVEC, 24 h, HUVEC, 24 hr
Outline: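 Point-of-departure values derive from four-parameter logistic fits of vehicle-normalized imaging phenotypes (Hoechst 33342, MitoTracker Orange, calcein AM). The fits follow 24 h exposure of HUVEC monolayers at 37°C and 5% CO2, with a top tested concentration of 100μM.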

[2] = 1.5 h, cam, 90 min, read-out: POD cm.cam.90min
[3] = 1.5 h, mii, 90 min, read-out: POD cm.mii.90min
[4] = 1.5 h, mito, 90 min, read-out: POD cm.mito.90min
[5] = 1.5 h, tc, 90 min, read-out: POD cm.tc.90min
[6] = 24 h, cam, 24 hrs, read-out: POD cm.cam.24hrs
[7] = 24 h, mii, 24 hrs, read-out: POD cm.mii.24hrs
[8] = 24 h, mito, 24 hrs, read-out: POD cm.mito.24hrs
[9] = 24 h, tc, 24 hrs, read-out: POD cm.tc.24hrs
[10] = cyto, read-out: POD huvec.cyto.24hr
[11] = mito, read-out: POD huvec.mito.24hr
[12] = mitoint, read-out: POD huvec.mitoint.24hr
[13] = nma, read-out: POD huvec.nma.24hr
[14] = tc, read-out: POD huvec.tc.24hr

Row | SMILES | minimal effective concentration [1, 2] [µM] | minimal effective concentration [1, 3] [µM] | minimal effective concentration [1, 4] [µM] | minimal effective concentration [1, 5] [µM] | minimal effective concentration [1, 6] [µM] | minimal effective concentration [1, 7] [µM] | minimal effective concentration [1, 8] [µM] | minimal effective concentration [1, 9] [µM] | minimal effective concentration (HUVECs; [10]) [µM] | minimal effective concentration (HUVECs; [11]) [µM] | minimal effective concentration (HUVECs; [12]) [µM] | minimal effective concentration (HUVECs; [13]) [µM] | minimal effective concentration (HUVECs; [14]) [µM]
1 | Oc1cc(Cl)cc(-c2cccc(Cl)c2)c1 [5-OH-PCB 11] | 16.2 | 34.1 | 13.8 | 14 | 13.8 | 8.43 | 14.6 | 10.7 | 0.95 | 0.84 | 3.3 | 1.22 | 0.95
2 | Oc1cc(Cl)c(-c2cc(Cl)ccc2Cl)cc1Cl [4-OH-PCB 52] | 8.86 | 45.7 | 8.61 | 8.75 | 32.7 | 65.1 | 36.7 | 41.4 | 1 | 1.1 | 2.32 | 100 | 1
3 | O=S(=O)(O)Oc1ccc(-c2ccc(Cl)cc2)cc1 [4'-PCB 3 sulfate] | 100 | 100 | 100 | 100 | 100 | 53.5 | 100 | 100 | 100 | 100 | 100 | 100 | 100
